Entries after “also recorded” stand apart in the source; their conditions may differ. Where two headings read alike, the source gives them in different places. Peptide text beside a SMILES is read from it.
Assays:
ACE = test system: ACE; set-up: method as in 5 sources, ref 34 = [34]; PMID 12843654; doi:10.1271/bbb.67.1278; 34. Kuba M. Tanaka K. Tawata S. Takeda Y. Yasuda M. Angiotensin I-converting enzyme inhibitory peptides isolated from tofuyo fermented soybean food Biosci. Biotechnol. Biochem. 2003 67 1278 1283 10.12 ||| ref 33 = [33]; PMID 25410725; doi:10.1002/bab.1321; 33. Sornwatana T. Bangphoomi K. Roytrakul S. Wetprasit N. Choowongkomon K. Ratanapo S. Chebulin: Terminalia chebula Retz. fruit-derived peptide with angiotensin-I–converting enzyme inhibitory activity ||| ref 35 = [35]; doi:10.1016/j.foodchem.2010.05.026; 35. Jiang Z. Tian B. Brodcrob A. Huo G. Production, analysis and in vivo evaluation of novel angiotensin-I-converting enzyme inhibitory peptides from bovine casein Food Chem. 2010 123 779 786 10.1016/ ||| ref 7 = [7]; doi:10.1016/j.foodchem.2009.04.086; 7. Lee S.H. Qian Z.J. Kim S.K. A novel angiotensin I converting enzyme inhibitory peptide from tuna frame protein hydrolysate and its antihypertensive effect in spontaneously hypertensive rats Food Ch ||| ref 36 = [36]; PMID 23140680; doi:10.1016/j.foodchem.2011.01.010; 36. Jang J.H. Jeong S.C. Kim J.H. Lee Y.H. Ju Y.C. Lee J.S. Characterisation of a new antihypertensive angiotensin I-converting enzyme inhibitory peptide from Pleurotus cornucopiae Food Chem. 2011 127; details: cited from earlier work; for IC50: read-out: IC50 (ACE, non-competitive peptide)
pepsin and pancreatin = experiment: In vitro simulated gastrointestinal digestion, then ACE-inhibitory activity assay and ESI-MS; format: in vitro ADME
Experimental: Pepsin (1 mg) was added, and the mixture was stirred at 37 °C for 2 h. Then, the pH was adjusted to 6 with 0.9 M NaHCO3, and afterwards to 7.5 with 1 M NaOH. Pancreatin (1 mg) was added, and the solution was incubated at 37 °C for 4 h.

[1] = from Pleurotus cornucopiae mushroom

Compound: GDLGKTTTVSNWSPPKYKDTP
- IC50 (ACE; from tuna frame protein hydrolysate): 11.3 µM

Compound: DERF
- IC50 (ACE, non-competitive peptide) (ACE; from bovine casein hydrolysate): 21 mg/L

Compound: DENSKF
- IC50 (ACE; from fruits of T. chebula Retz.): 100 µM

Compound: RYPSYG
- IC50 (ACE, non-competitive peptide) (ACE; from bovine casein hydrolysate): 54 mg/L

Compound: N=C(N)NCCC[C@H](NC(=O)[C@H](CC(=O)O)NC(=O)[C@@H](N)CC(N)=O)C(=O)N1CCC[C@H]1C(=O)O [NDRP] (H-NDRP-OH)
- maximal ACE inhibition of the in vitro-digested sample (pepsin and pancreatin; 10 mg mL−1 in H2O, pepsin, pH 2, 37 °C, 2 h, then pancreatin, pH 7.5, 37 °C, 4 h, enzymes deactivated in boiling water bath 10 min, freeze-dried, read-out ACE assay): 82.47 ± 1.07%
- residual ACE-inhibitory activity of the digested sample relative to pure peptide (pepsin and pancreatin; after pepsin (pH 2, 2 h) and pancreatin (pH 7.5, 4 h) at 37 °C, ratio of maximal ACE inhibition, digested vs pure NDRP): 94%
- stability toward in vitro simulated gastrointestinal digestion (in words) (pepsin and pancreatin; pepsin (pH 2, 2 h) then pancreatin (pH 7.5, 4 h), 37 °C, ACE assay and ESI-MS (peak of intact peptide observed)): stable towards gastrointestinal simulated digestion; also recorded: might be resistant to gastrointestinal digestion; also recorded: highly stable

Compound: RLPSEFDLSAFLRA
- IC50 (ACE, non-competitive peptide) (ACE; [1]): 450 mg/L

Compound: RLSGQTIEVTSEYLFRH
- IC50 (ACE, non-competitive peptide) (ACE; [1]): 1100 mg/L

Source: article PMC9455805, “Preparation, Characterization and In Vitro Stability of a Novel ACE-Inhibitory Peptide from Soybean Protein” (Foods, 2022)
